According to PMC6154583, “Optimized 4,5-Diarylimidazoles as Potent/Selective Inhibitors of Protein Kinase CK1δ and Their Structural Relation to p38α MAPK” (Molecules : A Journal of Synthetic Chemistry and Natural …, 2017):

Key:
[1] = test system: HT-29 cells; assay: MTT viability assay; type: cell-based; settings: Homo sapiens, dilution series
Procedure: (§1) The human pancreatic cancer cell lines Colo357 [61], Panc-1 [62], and MiaPaCa-2 [63] were grown in Dulbecco’s modified Eagle’s medium (DMEM). Panc89 [64] was grown in DMEM:RPMI-1640 medium in ratio 1:1. The human colon adenocarcinoma cell line HT-29 [65] was grown in McCoy’s 5A medium. All media were supplemented with 10% fetal calf serum (FCS), 100 units·mL^−1 penicillin, 100 µg∙mL^−1 streptomycin and 2 mM glutamine. All cells were grown at 37 °C in a humidified 5% carbon dioxide atmosphere.
In order to determine the cytotoxic effects of investigated inhibitors conventional MTT assay were used. 1 × 10^4 cells∙well^−1 were seeded in 96-well cell culture plates and cultivated for 24 h. Cell lines were exposed to increasing concentrations of the indicated inhibitor compounds, with untreated and DMSO-treated cells serving as control. After an incubation period of 48 h 10 µL of MTT solution (5 mg∙mL^−1 in PBS) were added and cells were incubated for 4 h. […] Finally, dissolved crystals were measured spectrophotometrically at 570 nM. […]
Figure S1. (A) HT-29 cells were treated with compounds of series 1 at 20 µM concentration and cell viability was measured by MTT viability assay. […]
screening at 20 µM concentration. Cell viability was determined by MTT assay and the EC50 value was calculated using GraphPad Prism 6. […]

[2] = test system: MiaPaCa-2 cells; assay: MTT viability assay; type: cell-based, human; settings: mean ± SD, n = 3
Procedure: as §1
(§2) In order to determine the cytotoxic effects of investigated inhibitors conventional MTT assay were used. 1 × 10^4 cells∙well^−1 were seeded in 96-well cell culture plates and cultivated for 24 h. Cell lines were exposed to increasing concentrations of the indicated inhibitor compounds, with untreated and DMSO-treated cells serving as control. After an incubation period of 48 h 10 µL of MTT solution (5 mg∙mL^−1 in PBS) were added and cells were incubated for 4 h. MTT-containing medium was carefully removed and 100 µL acidic isopropanol (0.04 N HCl in isopropanol) per well were added. For dissolution of formazan crystals plates were shaken for 30 min on an orbital shaker in the dark. Finally, dissolved crystals were measured spectrophotometrically at […]. All experiments were performed in triplicate with four technical replicates per assay. Results were normalized considering the mean optical density value of control wells as 100%. GraphPad Prism 6 (La Jolla, CA, USA) software was used to calculate EC50 values.

[3] = test system: Colo357 cells; assay: MTT viability assay; type: cell-based, human; settings: mean ± SD, n = 3
Procedure: as §1, §2

[4] = test system: Panc89 cells; assay: MTT viability assay; type: cell-based, human; settings: 48 h incubation, mean ± SD, n = 3
Procedure: as §1, §2

[5] = test system: Panc-1 cells; assay: MTT viability assay; type: cell-based, human; settings: mean ± SD, n = 3
Procedure: as §1, §2

[6] = test system: CK1δ/ε; settings: read-out: IC50 CK1δ/ε; cited from earlier work
[7] = test system: CK1α; settings: read-out: IC50 CK1α; cited from earlier work
[8] = test system: CK1ε; parameters: method as in PMID 19591487; settings: cited from earlier work
[9] = Chemical stability in DMSO solution by HPLC analysis; type: physicochemical; settings: within a short period of time after preparing a solution in DMSO
Excerpt: The binding modes described above are based on (E)-configured cinnamic moieties of 1 and 2, respectively. […] Accordingly, computational analysis assume these (Z)-stereoisomers to be less bioactive. Furthermore, the acrylamide Michael acceptor moiety of the cinnamic acid side chain was considered responsible for the observed chemical instability of 1 and 2 in solution. […] Consequently, our primary goal towards an optimized inhibitor was to gain chemical stability. Thus, having identified the cinnamic side chain to be responsible for the chemical instability issue we aimed towards stable side chains attached at the validated 2-aminopyridine core moiety. By these modifications we set out to explore the respective hydrophobic region II formerly occupied by the cinnamic acid moiety. At the same time, both potency and selectivity for CK1δ were taken into account. Therefore, in our systematic approach four structurally divergent series of inhibitors with variable side chains (Scheme 1) have been designed based on the following considerations.
They were stable in DMSO solution at room temperature without detectable degradation over a period of 72 h by HPLC analysis.

[10] = molecular target: CK1δ (Homo sapiens, UniProt P48730); parameters: method as in PMID 19591487; settings: CK1δ versus CK1ε; cited from earlier work
[11] = Homo sapiens, MIA PaCa-2, 48 h incubation
[12] = Homo sapiens, COLO357, 48 h incubation
[13] = Homo sapiens, PANC-1, 48 h incubation

Chain of CK1δ (P48730 whole entry): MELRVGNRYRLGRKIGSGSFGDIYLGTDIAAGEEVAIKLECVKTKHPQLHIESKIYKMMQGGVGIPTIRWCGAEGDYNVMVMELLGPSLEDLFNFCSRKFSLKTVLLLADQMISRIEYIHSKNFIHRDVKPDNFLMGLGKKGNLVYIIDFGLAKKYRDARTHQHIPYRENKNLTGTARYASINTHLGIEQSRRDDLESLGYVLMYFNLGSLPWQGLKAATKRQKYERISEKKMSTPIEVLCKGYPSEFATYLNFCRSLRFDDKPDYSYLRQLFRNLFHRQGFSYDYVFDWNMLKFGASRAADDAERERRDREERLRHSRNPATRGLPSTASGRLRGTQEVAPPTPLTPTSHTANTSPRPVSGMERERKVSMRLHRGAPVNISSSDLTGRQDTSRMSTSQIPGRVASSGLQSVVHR

In the case of `CSc1nc(-c2ccnc(NCCc3c[nH]c4ccccc34)c2)c(-c2ccc(F)cc2)[nH]1` [10e, N-(2-(1H-Indol-3-yl)-ethyl)-4-(5-(4-fluorophenyl)-2-(methylthio)-1H-imidazol-4-yl)-pyridin-2-amine], the EC50 [1] is reported as 9.3 µM.
`COc1ccc(CCC(=O)Nc2cc(-c3nc(SC)[nH]c3-c3ccc(F)cc3)ccn2)c(OC)c1` [11a, 3-(2,4-Dimethoxyphenyl)-N-(4-(5-(4-fluorophenyl)-2-(methylthio)-1H-imidazol-4-yl)-pyridin-2-yl)propanamide] showed an EC50 [2, 11] of 4.9 ± 0.8 µM, an EC50 [3, 12] of 4.1 ± 1.7 µM and an EC50 ([4]; Homo sapiens) of 2.5 ± 1 µM. For the same compound, the EC50 [5, 13] was 7 ± 0.7 µM.
`COc1cccc(CCC(=O)Nc2cc(-c3nc(SC)[nH]c3-c3ccc(F)cc3)ccn2)c1OC` [11c, 3-(2,3-Dimethoxyphenyl)-N-(4-(5-(4-fluorophenyl)-2-(methylthio)-1H-imidazol-4-yl)-pyridin-2-yl)-propanamide] showed an EC50 [3, 12] of 1.9 ± 0.6 µM and an EC50 ([4]; Homo sapiens) of 6.1 ± 3 µM.
In the case of `COc1ccc(CCC(=O)Nc2cc(-c3nc(SC)[nH]c3-c3ccc(F)cc3)ccn2)cc1OC` [11d, 3-(3,4-Dimethoxyphenyl)-N-(4-(5-(4-fluorophenyl)-2-(methylthio)-1H-imidazol-4-yl)-pyridin-2-yl)-propanamide], the EC50 [3, 12] is reported as 5.9 ± 2.4 µM and the EC50 ([4]; Homo sapiens) is reported as 7.8 ± 0.4 µM.
With `COc1cc(CCC(=O)Nc2cc(-c3nc(SC)[nH]c3-c3ccc(F)cc3)ccn2)cc(OC)c1OC` [11e, 3-(3,4,5-Trimethoxyphenyl)-N-(4-(5-(4-fluorophenyl)-2-(methylthio)-1H-imidazol-4-yl)-pyridin-2-yl)-propanamide] the EC50 [3, 12] was 4.5 ± 1.3 µM and the EC50 ([4]; Homo sapiens) was 8.3 ± 2.2 µM.
Compound `COc1ccc(NC(=O)Nc2cc(-c3nc(SC)[nH]c3-c3ccc(F)cc3)ccn2)c(OC)c1` [12a, 1-(2,4-Dimethoxyphenyl)-3-(4-(5-(4-fluorophenyl)-2-(methylthio)-1H-imidazol-4-yl)-pyridin-2-yl)carbamide] has an EC50 [2, 11] of 15.22 ± 0.04 µM, an EC50 [3, 12] of 17.4 ± 0.04 µM and an EC50 ([4]; Homo sapiens) of 19.6 ± 3.8 µM. It also gave an EC50 [5, 13] of 16.1 ± 5.6 µM.
Work on `COc1ccc(OC)c(NC(=O)Nc2cc(-c3nc(SC)[nH]c3-c3ccc(F)cc3)ccn2)c1` [12b, 1-(2,5-Dimethoxyphenyl)-3-(4-(5-(4-fluorophenyl)-2-(methylthio)-1H-imidazol-4-yl)-pyridin-2-yl)carbamide] yielded an EC50 ([2]; 48 h incubation) of 11.6 ± 1.1 µM, an EC50 ([3]; 48 h incubation) of 15.5 ± 1.6 µM and an EC50 ([5]; 48 h incubation) of 15.2 ± 2.6 µM.
Compound `CSc1nc(-c2ccnc(NC(=O)Nc3ccc(C)c(Cl)c3)c2)c(-c2ccc(F)cc2)[nH]1` [12e, 1-(3-Chloro-4-methylphenyl)-3-(4-(5-(4-fluorophenyl)-2-(methylthio)-1H-imidazol-4-yl)-pyridin-2-yl)-carbamide] has an EC50 ([3]; 48 h incubation) of 14.9 ± 2.6 µM and an EC50 [4] of 7.5 ± 3 µM.
For `COc1ccc(-c2cc(C(=O)Nc3cc(-c4nc(SC)[nH]c4-c4ccc(F)cc4)ccn3)n(C)c2)c(OC)c1` [16a, 4-(2,4-Dimethoxyphenyl)-N-(4-(5-(4-fluorphenyl)-2-(methylthio)-1H-imidazol-4-yl)-pyridin-2-yl)-1-methyl-1H-pyrrole-2-carboxamide], the EC50 [2, 11] was 2.4 ± 0.7 µM and the EC50 [5, 13] was 5.1 ± 1.6 µM.
In the case of `COc1ccc(OC)c(-c2cc(C(=O)Nc3cc(-c4nc(SC)[nH]c4-c4ccc(F)cc4)ccn3)n(C)c2)c1` [16b, 4-(2,5-Dimethoxyphenyl)-N-(4-(5-(4-fluorphenyl)-2-(methylthio)-1H-imidazol-4-yl)-pyridin-2-yl)-1-methyl-1H-pyrrole-2-carboxamide], the EC50 ([2]; 48 h incubation) is reported as 2.3 ± 0.2 µM, the EC50 ([3]; 48 h incubation) is reported as 5.7 ± 2.2 µM and the EC50 [4] is reported as 7.3 ± 1.9 µM. It also gave an EC50 ([5]; 48 h incubation) of 5.4 ± 1.5 µM.
Compound `COc1ccc(-c2cc(C(=O)Nc3cc(-c4nc([S+](C)[O-])[nH]c4-c4ccc(F)cc4)ccn3)n(C)c2)c(OC)c1` (stereo not drawn) [16c, 4-(2,4-Dimethoxyphenyl)-N-(4-(5-(4-fluorophenyl)-2-(methylsulfinyl)-1H-imidazol-4-yl)-pyridin-2-yl)-1-methyl-1H-pyrrol-2-carboxamide] has an EC50 [2, 11] of 7.7 ± 2.5 µM, an EC50 [3, 12] of 16.7 ± 5.6 µM and an EC50 [5, 13] of 10.2 ± 3.2 µM.
In the case of `COc1cc(OC)c(C=C2C(O)=Nc3ccccc32)c(OC)c1` [IC261], the IC50 [6] is given as 1 µM and the IC50 [7] is given as 10 µM.
For `COc1ccc(/C=C/C(=O)Nc2cc(-c3nc(SC)[nH]c3-c3ccc(F)cc3)ccn2)c(OC)c1` [compound 1], the IC50 [8] is listed as 0.073 µM and the “chemical stability in DMSO solution (HPLC analysis)” value [9] is listed as “increasing number of not identifiable degradation products”.
For `COc1ccc(C=CC(=O)Nc2cc(-c3nc([S+](C)[O-])[nH]c3-c3ccc(F)cc3)ccn2)c(OC)c1` (stereo not drawn) [compound 2], the IC50 [8] is listed as 0.447 µM, the “chemical stability in DMSO solution (HPLC analysis)” value [9] is listed as “increasing number of not identifiable degradation products” and the “discrimination of isoforms δ and ε” value [10] is listed as “at least 40 fold”.
